The values that follow come from US12022831B2, “Synergistic weed control from applications of aminopyralid and clopyralid” (Dow AgroSciences LLC, priority 2012, dated 2024).

This assay concerns honey mesquite (Prosopis glandulosa), weed bayer PRCJG. Briefly: Field trial, post-emergence foliar application, synergistic weed control (canopy control and mortality ratings, Colby's equation). The format is in vivo. The method, then: In some embodiments, the damage or injury to the undesired vegetation caused by the compositions and methods disclosed herein is evaluated using a scale from 0% to 100%, when compared with the untreated control vegetation, wherein 0% indicates no damage to the undesired vegetation and 100% indicates complete destruction of the undesired vegetation.
X=effect in percent using (a) aminopyralid or an agriculturally acceptable salt or ester thereof at an application rate a;
Y=effect in percent using (b) clopyralid or an agriculturally acceptable salt or ester thereof at an application rate b;
E=expected effect (in %) of (a)+(b) at application rates a and b.
In Colby's equation, the value E corresponds to the effect (plant damage or injury) that is to be expected if the activity of the individual compounds is additive. If the observed effect is higher than the value E calculated according to the Colby equation, then a synergistic effect is present according to the Colby equation.
Field trials were conducted with applications made to established grassland with naturally occurring weed populations. The target plants were treated with postemergence foliar applications when they reached two to five feet tall. All treatments were applied using a nonrandomized trial design, with three replications per treatment.
[…] Spray solutions were prepared using an appropriate amount of dilution to form a 2 L aqueous spray solution with active ingredients in single and two way combinations. […] The treated plants were honey mesquite (Prosopis glandulosa). The treated plots and control plots were rated blind at various intervals after application. Ratings were based on a scale of 0-100%, wherein 0% indicates no damage to the canopy of the undesired vegetation and 100% indicates complete destruction of the canopy of undesired vegetation. Dead and live plants were counted and the mortality was calculated as a % of the total number of undesired plants per plot.
Colby's equation was used to determine the herbicidal effects expected from the mixtures, as described above. […] The herbicide tank mix combinations tested, application rates and ratios employed, plant species tested, and results are given below.

Where a name gives a salt, the structure may show the parent alone.

As to `O=C(O)c1nc(Cl)ccc1Cl` [Clopyralid MEA Salt, 3,6-dichloro-2-pyridinecarboxylic acid], where the note is “Clopyralid MEA Salt alone 560 gae/ha, 82 days after treatment”, the “Mean % weed mortality; Evaluation: % Canopy Control” value came out at 25.0%. Also, the “Mean % weed mortality; Evaluation: % Mortality” value runs as follows: (Clopyralid MEA Salt alone 560 gae/ha, 385 days after treatment) 25%; (Clopyralid MEA Salt alone 560 gae/ha, 386 days after treatment) 7%.

On to `Nc1cc(Cl)nc(C(=O)O)c1Cl` [Aminopyralid TIPA Salt, 4-amino-3,6-dichloro-2-pyridinecarboxylic acid], for which the “Mean % weed mortality; Evaluation: % Canopy Control” value is, setting by setting: (Aminopyralid TIPA Salt alone 280 gae/ha, 81 days after treatment) 22.0%; (Aminopyralid TIPA Salt alone 280 gae/ha, 82 days after treatment) 10.0%. In addition, the “Mean % weed mortality; Evaluation: % Mortality” value turned out to be 0% (Aminopyralid TIPA Salt alone 280 gae/ha, 385 days after treatment) and 14% (Aminopyralid TIPA Salt alone 280 gae/ha, 386 days after treatment).
